Experimental data from the supplement of paper PMC10627819.

Key:
S. pneumoniae D39V [1] = assay: fitness (endpoint OD595 vs no drug) (fraction); higher = more growth
In short: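 Fitness was measured as bacterial growth in 384-well plates inoculated at OD595 0.01 (30 µl, or 55 µl for S. pneumoniae). Media were TSB, LB Lennox or CY, at 37 °C. OD595 was read every 30 min for 14 h and background-subtracted against the first reading. Fitness is OD595 at the transition into stationary phase divided by the robust mean of no-drug control wells, capped at 1.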

B. subtilis 168 = assay: Bliss interaction score (quartile over a dose matrix) (fitness difference); higher = more antagonism (negative = synergy)
In short: (§1)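 The Bliss score was calculated by subtracting the expected fitness, the product of single-drug values, from the observed fitness. OD595 at entry into stationary phase, over the plate's robust no-drug mean and capped at 1, served as the fitness readout. Single-drug values were inferred from combination data, and scores are summarised by quartiles across technical, biological and donor/recipient replicates.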

S. aureus DSM 20231 = assay: as above
In short: as §1

S. aureus Newman = assay: as above
In short: as §1

S. pneumoniae D39V [2] = assay: as above
In short: as §1
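For Bliss interaction score (quartile over a dose matrix) in this document: first quartile when negative (synergy) and third quartile when positive (antagonism).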

With `C[C@H]1COc2c(N3CCN(C)CC3)c(F)cc3c(=O)c(C(=O)O)cn1c23` [Levofloxacin] + Clc1ccc(COC(Cn2ccnc2)c2ccc(Cl)cc2Cl)c(Cl)c1 [Miconazole] the fitness (S. pneumoniae D39V [1]; first compound 0.1725 µg/mL, partner 1.25 µg/mL) was 0.955, the fitness (S. pneumoniae D39V [1]; first compound 0.1725 µg/mL, partner 2.5 µg/mL) was 0.976 and the fitness (S. pneumoniae D39V [1]; first compound 0.1725 µg/mL, partner 5 µg/mL) was 0.963. The fitness (S. pneumoniae D39V [1]; first compound 0.2 µg/mL, partner 1.073 µg/mL) was ≥ 1, the fitness (S. pneumoniae D39V [1]; first compound 0.2 µg/mL, partner 2.145 µg/mL) was ≥ 1 and the fitness (S. pneumoniae D39V [1]; first compound 0.2 µg/mL, partner 4.29 µg/mL) was 0.978. It also gave a fitness (S. pneumoniae D39V [1]; first compound 0.345 µg/mL, partner 1.25 µg/mL) of 0.866, a fitness (S. pneumoniae D39V [1]; first compound 0.345 µg/mL, partner 2.5 µg/mL) of 0.856 and a fitness (S. pneumoniae D39V [1]; first compound 0.345 µg/mL, partner 5 µg/mL) of 0.859. It also gave a fitness (S. pneumoniae D39V [1]; first compound 0.4 µg/mL, partner 1.073 µg/mL) of 0.934, a fitness (S. pneumoniae D39V [1]; first compound 0.4 µg/mL, partner 2.145 µg/mL) of 0.941 and a fitness (S. pneumoniae D39V [1]; first compound 0.4 µg/mL, partner 4.29 µg/mL) of 0.825. It also gave a fitness (S. pneumoniae D39V [1]; first compound 0.69 µg/mL, partner 1.25 µg/mL) of 0.576, a fitness (S. pneumoniae D39V [1]; first compound 0.69 µg/mL, partner 2.5 µg/mL) of 0.432 and a fitness (S. pneumoniae D39V [1]; first compound 0.69 µg/mL, partner 5 µg/mL) of 0.578. For the same molecule, the fitness (S. pneumoniae D39V [1]; first compound 0.8 µg/mL, partner 4.29 µg/mL) was 0.769, the Bliss interaction score (B. subtilis 168) was 0.0649 and the Bliss interaction score (S. aureus DSM 20231) was -0.0265. The Bliss interaction score (S. aureus Newman) was 0.0464 and the Bliss interaction score (S. pneumoniae D39V [2]) was 0.11.
Molecule `C[C@H]1COc2c(N3CCN(C)CC3)c(F)cc3c(=O)c(C(=O)O)cn1c23` [Levofloxacin] + Cn1nnc(-c2ccc(-c3ccc(N4C[C@H](CO)OC4=O)cc3F)cn2)n1 [Tedizolid] has a fitness (S. pneumoniae D39V [1]; first compound 0.1725 µg/mL, partner 0.125 µg/mL) of 0.758, a fitness (S. pneumoniae D39V [1]; first compound 0.1725 µg/mL, partner 0.25 µg/mL) of 0.826 and a fitness (S. pneumoniae D39V [1]; first compound 0.1725 µg/mL, partner 0.5 µg/mL) of 0.243. It also gave a fitness (S. pneumoniae D39V [1]; first compound 0.2 µg/mL, partner 0.03125 µg/mL) of 0.921, a fitness (S. pneumoniae D39V [1]; first compound 0.2 µg/mL, partner 0.0625 µg/mL) of 0.94 and a fitness (S. pneumoniae D39V [1]; first compound 0.2 µg/mL, partner 0.125 µg/mL) of 0.768. For the same molecule, the fitness (S. pneumoniae D39V [1]; first compound 0.345 µg/mL, partner 0.125 µg/mL) was 0.703, the fitness (S. pneumoniae D39V [1]; first compound 0.345 µg/mL, partner 0.25 µg/mL) was 0.757 and the fitness (S. pneumoniae D39V [1]; first compound 0.345 µg/mL, partner 0.5 µg/mL) was 0.203. The fitness (S. pneumoniae D39V [1]; first compound 0.4 µg/mL, partner 0.03125 µg/mL) was 0.855, the fitness (S. pneumoniae D39V [1]; first compound 0.4 µg/mL, partner 0.0625 µg/mL) was 0.878 and the fitness (S. pneumoniae D39V [1]; first compound 0.4 µg/mL, partner 0.125 µg/mL) was 0.731. The fitness (S. pneumoniae D39V [1]; first compound 0.69 µg/mL, partner 0.125 µg/mL) was 0.433, the fitness (S. pneumoniae D39V [1]; first compound 0.69 µg/mL, partner 0.25 µg/mL) was 0.401 and the fitness (S. pneumoniae D39V [1]; first compound 0.69 µg/mL, partner 0.5 µg/mL) was 0.189. The fitness (S. pneumoniae D39V [1]; first compound 0.8 µg/mL, partner 0.03125 µg/mL) was 0.629, the fitness (S. pneumoniae D39V [1]; first compound 0.8 µg/mL, partner 0.0625 µg/mL) was 0.731 and the fitness (S. pneumoniae D39V [1]; first compound 0.8 µg/mL, partner 0.125 µg/mL) was 0.608. It also gave a Bliss interaction score (B. subtilis 168) of 0.0224, a Bliss interaction score (S. aureus DSM 20231) of 0.0821 and a Bliss interaction score (S. aureus Newman) of 0.057. It also gave a Bliss interaction score (S. pneumoniae D39V [2]) of -0.126.
Work on `C[C@H]1COc2c(N3CCN(C)CC3)c(F)cc3c(=O)c(C(=O)O)cn1c23` [Levofloxacin] + O=C1CN(/N=C/c2ccc([N+](=O)[O-])o2)C(=O)N1 [Nitrofurantoin] yielded a fitness (S. pneumoniae D39V [1]; first compound 0.1725 µg/mL, partner 2 µg/mL) of 0.921, a fitness (S. pneumoniae D39V [1]; first compound 0.1725 µg/mL, partner 4 µg/mL) of 0.92 and a fitness (S. pneumoniae D39V [1]; first compound 0.1725 µg/mL, partner 8 µg/mL) of 0.799. The fitness (S. pneumoniae D39V [1]; first compound 0.2 µg/mL, partner 1.285 µg/mL) was 0.894, the fitness (S. pneumoniae D39V [1]; first compound 0.2 µg/mL, partner 2.57 µg/mL) was 0.909 and the fitness (S. pneumoniae D39V [1]; first compound 0.2 µg/mL, partner 5.14 µg/mL, one replicate) was 0.86. The fitness (S. pneumoniae D39V [1]; first compound 0.345 µg/mL, partner 2 µg/mL) was 0.852, the fitness (S. pneumoniae D39V [1]; first compound 0.345 µg/mL, partner 4 µg/mL) was 0.797 and the fitness (S. pneumoniae D39V [1]; first compound 0.345 µg/mL, partner 8 µg/mL) was 0.688. For the same molecule, the fitness (S. pneumoniae D39V [1]; first compound 0.4 µg/mL, partner 1.285 µg/mL) was 0.842, the fitness (S. pneumoniae D39V [1]; first compound 0.4 µg/mL, partner 2.57 µg/mL) was 0.865 and the fitness (S. pneumoniae D39V [1]; first compound 0.4 µg/mL, partner 5.14 µg/mL, one replicate) was 0.75. It also gave a fitness (S. pneumoniae D39V [1]; first compound 0.69 µg/mL, partner 2 µg/mL) of 0.568, a fitness (S. pneumoniae D39V [1]; first compound 0.69 µg/mL, partner 4 µg/mL) of 0.535 and a fitness (S. pneumoniae D39V [1]; first compound 0.69 µg/mL, partner 8 µg/mL) of 0.38. It also gave a fitness (S. pneumoniae D39V [1]; first compound 0.8 µg/mL, partner 1.285 µg/mL) of 0.558, a fitness (S. pneumoniae D39V [1]; first compound 0.8 µg/mL, partner 2.57 µg/mL) of 0.524 and a fitness (S. pneumoniae D39V [1]; first compound 0.8 µg/mL, partner 5.14 µg/mL, one replicate) of 0.317. The Bliss interaction score (B. subtilis 168) was 0.0577, the Bliss interaction score (S. aureus DSM 20231) was 0.027 and the Bliss interaction score (S. aureus Newman) was -0.0599. It also gave a Bliss interaction score (S. pneumoniae D39V [2]) of -0.0691.
With `CN(C)C(=O)C(CCN1CCC(O)(c2ccc(Cl)cc2)CC1)(c1ccccc1)c1ccccc1` [Loperamide] + C/C(=C\C(=O)OCCCCCCCCC(=O)O)C[C@@H]1OC[C@H](C[C@@H]2O[C@H]2[C@@H](C)[C@H](C)O)[C@@H](O)[C@H]1O [Pseudomonic acid] the fitness (S. pneumoniae D39V [1]; first compound 17.14 µg/mL, partner 0.03 µg/mL) was ≥ 1, the fitness (S. pneumoniae D39V [1]; first compound 17.14 µg/mL, partner 0.06 µg/mL) was 0.859 and the fitness (S. pneumoniae D39V [1]; first compound 17.14 µg/mL, partner 0.12 µg/mL) was 0.686. For the same molecule, the fitness (S. pneumoniae D39V [1]; first compound 20 µg/mL, partner 0.03 µg/mL) was 0.9, the fitness (S. pneumoniae D39V [1]; first compound 20 µg/mL, partner 0.06 µg/mL) was 0.726 and the fitness (S. pneumoniae D39V [1]; first compound 20 µg/mL, partner 0.12 µg/mL) was 0.544. It also gave a fitness (S. pneumoniae D39V [1]; first compound 34.28 µg/mL, partner 0.03 µg/mL) of 0.99, a fitness (S. pneumoniae D39V [1]; first compound 34.28 µg/mL, partner 0.06 µg/mL) of 0.808 and a fitness (S. pneumoniae D39V [1]; first compound 34.28 µg/mL, partner 0.12 µg/mL) of 0.632. It also gave a fitness (S. pneumoniae D39V [1]; first compound 40 µg/mL, partner 0.03 µg/mL) of 0.961, a fitness (S. pneumoniae D39V [1]; first compound 40 µg/mL, partner 0.06 µg/mL) of 0.766 and a fitness (S. pneumoniae D39V [1]; first compound 40 µg/mL, partner 0.12 µg/mL) of 0.569. For the same molecule, the fitness (S. pneumoniae D39V [1]; first compound 68.57 µg/mL, partner 0.03 µg/mL, one replicate) was ≥ 1, the fitness (S. pneumoniae D39V [1]; first compound 68.57 µg/mL, partner 0.06 µg/mL, one replicate) was 0.996 and the fitness (S. pneumoniae D39V [1]; first compound 68.57 µg/mL, partner 0.12 µg/mL, one replicate) was 0.663. The fitness (S. pneumoniae D39V [1]; first compound 80 µg/mL, partner 0.03 µg/mL) was 0.845, the fitness (S. pneumoniae D39V [1]; first compound 80 µg/mL, partner 0.06 µg/mL) was 0.747 and the fitness (S. pneumoniae D39V [1]; first compound 80 µg/mL, partner 0.12 µg/mL) was 0.509. For the same molecule, the Bliss interaction score (B. subtilis 168) was -0.0528, the Bliss interaction score (S. aureus DSM 20231) was 0.0202 and the Bliss interaction score (S. aureus Newman) was 0.0342. For the same molecule, the Bliss interaction score (S. pneumoniae D39V [2]) was 0.121.
With `CN(C)C(=O)C(CCN1CCC(O)(c2ccc(Cl)cc2)CC1)(c1ccccc1)c1ccccc1` [Loperamide] + CN[C@H](CC(C)C)C(=O)N[C@H]1C(=O)N[C@@H](CC(N)=O)C(=O)N[C@H]2C(=O)N[C@H]3C(=O)N[C@H](C(=O)N[C@H](C(=O)O)c4cc(O)cc(O)c4-c4cc3ccc4O)[C@H](O)c3ccc(c(Cl)c3)Oc3cc2cc(c3O[C@@H]2O[C@H](CO)[C@@H](O)[C@H](O)[C@H]2O[C@H]2C[C@](C)(N)[C@H](O)[C@H](C)O2)Oc2ccc(cc2Cl)[C@H]1O [Vancomycin] the fitness (S. pneumoniae D39V [1]; first compound 17.14 µg/mL, partner 0.5 µg/mL) was 0.0584, the fitness (S. pneumoniae D39V [1]; first compound 20 µg/mL, partner 0.03125 µg/mL) was ≥ 1 and the fitness (S. pneumoniae D39V [1]; first compound 20 µg/mL, partner 0.0625 µg/mL) was 0.937. For the same molecule, the fitness (S. pneumoniae D39V [1]; first compound 34.28 µg/mL, partner 0.25 µg/mL) was 0.77, the fitness (S. pneumoniae D39V [1]; first compound 34.28 µg/mL, partner 0.5 µg/mL) was 0.0876 and the fitness (S. pneumoniae D39V [1]; first compound 40 µg/mL, partner 0.03125 µg/mL) was 0.959. For the same molecule, the fitness (S. pneumoniae D39V [1]; first compound 40 µg/mL, partner 0.0625 µg/mL) was 0.866, the fitness (S. pneumoniae D39V [1]; first compound 68.57 µg/mL, partner 0.125 µg/mL, one replicate) was 0.942 and the fitness (S. pneumoniae D39V [1]; first compound 68.57 µg/mL, partner 0.25 µg/mL, one replicate) was 0.853. The fitness (S. pneumoniae D39V [1]; first compound 68.57 µg/mL, partner 0.5 µg/mL, one replicate) was 0.0639, the fitness (S. pneumoniae D39V [1]; first compound 80 µg/mL, partner 0.125 µg/mL) was 0.28 and the Bliss interaction score (B. subtilis 168) was -0.0281. It also gave a Bliss interaction score (S. aureus DSM 20231) of -0.0861, a Bliss interaction score (S. aureus Newman) of 0.0922 and a Bliss interaction score (S. pneumoniae D39V [2]) of -0.184.
